Source: ChEMBL document CHEMBL4052736, “Synthesis, antioxidant, antifungal, molecular docking and ADMET studies of some thiazolyl hydrazones” (Bioorg Med Chem Lett, 2017)
Values after ≈ are worked out from the molar mass of the structure shown.

Key:
Format in all cases: functional
Aspergillus flavus [1] = assay: Antifungal activity against Aspergillus flavus assessed as zone of inhibition at 50 ug/ml measured after 24 hrs by well diffusion method; details: read-out: IZ
[2] = Antioxidant activity assessed as H2O2 free radical scavenging activity at 100 ug/ml after 10 to 15 mins by spectrophotometric analysis
[3] = Antioxidant activity assessed as H2O2 free radical scavenging activity at 40 ug/ml after 10 to 15 mins by spectrophotometric analysis
Aspergillus niger [4] = assay: Antifungal activity against Aspergillus niger assessed as zone of inhibition at 50 ug/ml measured after 24 hrs by well diffusion method; details: read-out: IZ
Candida albicans [5] = assay: Antifungal activity against Candida albicans assessed as zone of inhibition at 100 ug/ml measured after 24 hrs by well diffusion method; details: read-out: IZ
[6] = Antioxidant activity assessed as DPPH free radical scavenging activity at 20 ug/ml after 15 mins by spectrophotometric method
Candida albicans [7] = assay: Antifungal activity against Candida albicans assessed as zone of inhibition at 50 ug/ml measured after 24 hrs by well diffusion method; details: read-out: IZ
[8] = Antioxidant activity assessed as H2O2 free radical scavenging activity at 60 ug/ml after 10 to 15 mins by spectrophotometric analysis
[9] = Antioxidant activity assessed as DPPH free radical scavenging activity at 60 ug/ml after 15 mins by spectrophotometric method
[10] = Antioxidant activity assessed as DPPH free radical scavenging activity measured after 15 mins by spectrophotometric method
Candida albicans [11] = assay: Antifungal activity against Candida albicans after 24 hrs by well diffusion method
Aspergillus niger [12] = assay: Antifungal activity against Aspergillus niger assessed as zone of inhibition at 25 ug/ml measured after 24 hrs by well diffusion method; details: read-out: IZ
Aspergillus niger [13] = assay: Antifungal activity against Aspergillus niger assessed as zone of inhibition at 100 ug/ml measured after 24 hrs by well diffusion method; details: read-out: IZ
Aspergillus flavus [14] = assay: Antifungal activity against Aspergillus flavus assessed as zone of inhibition at 25 ug/ml measured after 24 hrs by well diffusion method; details: read-out: IZ
[15] = Antioxidant activity assessed as H2O2 free radical scavenging activity by spectrophotometric analysis
Aspergillus flavus [16] = assay: Antifungal activity against Aspergillus flavus after 24 hrs by well diffusion method
[17] = Antioxidant activity assessed as DPPH free radical scavenging activity at 100 ug/ml after 15 mins by spectrophotometric method
[18] = Antioxidant activity assessed as H2O2 free radical scavenging activity at 20 ug/ml after 10 to 15 mins by spectrophotometric analysis
Candida albicans [19] = assay: Antifungal activity against Candida albicans assessed as zone of inhibition at 25 ug/ml measured after 24 hrs by well diffusion method; details: read-out: IZ
[20] = Antioxidant activity assessed as H2O2 free radical scavenging activity at 80 ug/ml after 10 to 15 mins by spectrophotometric analysis
Aspergillus niger [21] = assay: Antifungal activity against Aspergillus niger after 24 hrs by well diffusion method
Aspergillus flavus [22] = assay: Antifungal activity against Aspergillus flavus assessed as zone of inhibition at 100 ug/ml measured after 24 hrs by well diffusion method; details: read-out: IZ
[23] = Antioxidant activity assessed as DPPH free radical scavenging activity at 80 ug/ml after 15 mins by spectrophotometric method
[24] = Antioxidant activity assessed as DPPH free radical scavenging activity at 40 ug/ml after 15 mins by spectrophotometric method

With `Clc1ccc(-c2csc(N/N=C/c3ccc(Cl)cc3Cl)n2)cc1` the zone of inhibition at 50 µg/mL (Aspergillus flavus [1]) was 15 mm, the inhibition [2] was 84.4% and the inhibition [3] was 76.2%. It also gave a zone of inhibition at 50 µg/mL (Aspergillus niger [4]) of 13 mm, a zone of inhibition at 100 µg/mL (Candida albicans [5]) of 18 mm and an inhibition [6] of 73.9%. The zone of inhibition at 50 µg/mL (Candida albicans [7]) was 15 mm, the inhibition [8] was 80.4% and the inhibition [9] was 88.9%. It also gave an IC50 [10] of 32.224 µg/mL (≈ 84.2 µM), an MIC (Candida albicans [11]) of 3.12 µg/mL (≈ 8.15 µM) and a zone of inhibition at 25 µg/mL (Aspergillus niger [12]) of 12 mm. For the same compound, the zone of inhibition at 100 µg/mL (Aspergillus niger [13]) was 17 mm, the zone of inhibition at 25 µg/mL (Aspergillus flavus [14]) was 12 mm and the IC50 [15] was 43.537 µg/mL (≈ 114 µM). For the same compound, the MIC (Aspergillus flavus [16]) was 6.25 µg/mL (≈ 16.3 µM), the inhibition [17] was 92.4% and the inhibition [18] was 76%. It also gave a zone of inhibition at 25 µg/mL (Candida albicans [19]) of 10 mm, an inhibition [20] of 83.1% and an MIC (Aspergillus niger [21]) of 6.12 µg/mL (≈ 16 µM). For the same compound, the zone of inhibition at 100 µg/mL (Aspergillus flavus [22]) was 16 mm, the inhibition [23] was 92.3% and the inhibition [24] was 85.9%.
`Clc1ccc(/C=N/Nc2nc(-c3ccccc3)cs2)c(Cl)c1` showed a zone of inhibition at 50 µg/mL (Aspergillus flavus [1]) of 15 mm, an inhibition [2] of 87.4% and an inhibition [3] of 78.9%. For the same compound, the zone of inhibition at 50 µg/mL (Aspergillus niger [4]) was 10 mm, the zone of inhibition at 100 µg/mL (Candida albicans [5]) was 15 mm and the inhibition [6] was 76.6%. It also gave a zone of inhibition at 50 µg/mL (Candida albicans [7]) of 14 mm, an inhibition [8] of 80.4% and an inhibition [9] of 92.8%. For the same compound, the IC50 [10] was 29.307 µg/mL (≈ 84.2 µM), the MIC (Candida albicans [11]) was 3.12 µg/mL (≈ 8.96 µM) and the zone of inhibition at 25 µg/mL (Aspergillus niger [12]) was 8 mm. The zone of inhibition at 100 µg/mL (Aspergillus niger [13]) was 11 mm, the zone of inhibition at 25 µg/mL (Aspergillus flavus [14]) was 12 mm and the IC50 [15] was 43.712 µg/mL (≈ 126 µM). The MIC (Aspergillus flavus [16]) was < 3.12 µg/mL, the inhibition [17] was 95.8% and the inhibition [18] was 78.1%. It also gave a zone of inhibition at 25 µg/mL (Candida albicans [19]) of 12 mm, an inhibition [20] of 83.1% and an MIC (Aspergillus niger [21]) of 12.5 µg/mL (≈ 35.9 µM). The zone of inhibition at 100 µg/mL (Aspergillus flavus [22]) was 25 mm, the inhibition [23] was 92.6% and the inhibition [24] was 90.2%.
